Assay results as given in patent publication US12435044B2, “Pyridazinone herbicides and pyridazinone intermediates used to prepare a herbicide” (FMC Corporation, priority 2018, dated 2025).

How the values were obtained:
Assay in all cases: Test C pre-/postemergence greenhouse test
Type in all cases: in vivo
Conditions in all cases: scale 0 to 100
[1] = test system: foxtail, giant (Setaria faberii)
How it was run: (§1)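 Test chemicals were formulated in a non-phytotoxic solvent mixture with surfactant and applied preemergence to seeds in silt loam soil or postemergence to plants of 2 to 18 cm in a peat/vermiculite medium. After 13 to 21 d in a greenhouse, response was visually scored from 0 (no effect) to 100 (complete control).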

kochia (Kochia scoparia) = test system: kochia (Kochia scoparia)
How it was run: as §1

[2] = test system: surinam grass (Brachiaria decumbens)
How it was run: as §1

[3] = test system: pigweed, palmer (Amaranthus palmeri)
How it was run: as §1

[4] = test system: windgrass (Apera spica-venti)
How it was run: as §1

[5] = test system: crabgrass, large (Digitaria sanguinalis)
How it was run: as §1

[6] = test system: poinsettia, wild (Euphorbia heterophylla)
How it was run: as §1

[7] = test system: galium (catchweed bedstraw, Galium aparine)
How it was run: as §1

[8] = test system: nutsedge, yellow (Cyperus esculentus)
How it was run: as §1

[9] = test system: ryegrass, Italian (Lolium multiflorum)
How it was run: as §1

soybean (Glycine max) = test system: soybean (Glycine max)
How it was run: as §1

[10] = test system: johnsongrass (Sorghum halepense)
How it was run: as §1

corn (Zea mays) = test system: corn (Zea mays)
How it was run: as §1

[11] = test system: lambsquarters (Chenopodium album)
How it was run: as §1

Cc1cc(Cl)c2ccccc2c1-c1c(O)c(Cl)nn(C)c1=O [Cpd. No. 65]
90: Plant response rating, Kochia (kochia (Kochia scoparia); Preemergence, 125 g ai/ha) | Plant response rating, Surinam Grass ([2]; Postemergence, 16 g ai/ha) | Plant response rating, Surinam Grass ([2]; Postemergence, 31 g ai/ha) | Plant response rating, Windgrass ([4]; Postemergence, 16 g ai/ha) | Plant response rating, Windgrass ([4]; Postemergence, 31 g ai/ha) | Plant response rating, Galium ([7]; Postemergence, 16 g ai/ha) | Plant response rating, Galium ([7]; Postemergence, 31 g ai/ha) | Plant response rating, Lambsquarters ([11]; Postemergence, 16 g ai/ha) | Plant response rating, Lambsquarters ([11]; Preemergence, 62 g ai/ha)
70: Plant response rating, Kochia (kochia (Kochia scoparia); Preemergence, 31 g ai/ha) | Plant response rating, Surinam Grass ([2]; Preemergence, 62 g ai/ha) | Plant response rating, Pigweed, Palmer ([3]; Preemergence, 31 g ai/ha) | Plant response rating, Crabgrass, Large ([5]; Postemergence, 125 g ai/ha) | Plant response rating, Poinsettia, Wild ([6]; Postemergence, 16 g ai/ha) | Plant response rating, Poinsettia, Wild ([6]; Preemergence, 62 g ai/ha) | Plant response rating, Ryegrass, Italian ([9]; Preemergence, 31 g ai/ha)
35: Plant response rating, Foxtail, Giant ([1]; Preemergence, 61 g ai/ha) | Plant response rating, Pigweed, Palmer ([3]; Postemergence, 16 g ai/ha) | Plant response rating, Poinsettia, Wild ([6]; Preemergence, 31 g ai/ha)
40: Plant response rating, Kochia (kochia (Kochia scoparia); Postemergence, 16 g ai/ha) | Plant response rating, Crabgrass, Large ([5]; Postemergence, 31 g ai/ha) | Plant response rating, Crabgrass, Large ([5]; Postemergence, 62 g ai/ha) | Plant response rating, Ryegrass, Italian ([9]; Preemergence, 61 g ai/ha) | Plant response rating, Johnsongrass ([10]; Postemergence, 31 g ai/ha) | Plant response rating, Corn (corn (Zea mays); Postemergence, 31 g ai/ha)
10: Plant response rating, Nutsedge, Yellow ([8]; Preemergence, 61 g ai/ha)
25: Plant response rating, Poinsettia, Wild ([6]; Preemergence, 61 g ai/ha)
20: Plant response rating, Kochia (kochia (Kochia scoparia); Preemergence, 61 g ai/ha) | Plant response rating, Johnsongrass ([10]; Postemergence, 16 g ai/ha) | Plant response rating, Johnsongrass ([10]; Preemergence, 125 g ai/ha) | Plant response rating, Lambsquarters ([11]; Preemergence, 61 g ai/ha)
65: Plant response rating, Kochia (kochia (Kochia scoparia); Postemergence, 62 g ai/ha) | Plant response rating, Crabgrass, Large ([5]; Preemergence, 125 g ai/ha) | Plant response rating, Nutsedge, Yellow ([8]; Postemergence, 62 g ai/ha) | Plant response rating, Soybean (soybean (Glycine max); Postemergence, 16 g ai/ha) | Plant response rating, Corn (corn (Zea mays); Postemergence, 62 g ai/ha)
5: Plant response rating, Soybean (soybean (Glycine max); Preemergence, 62 g ai/ha) | Plant response rating, Johnsongrass ([10]; Preemergence, 31 g ai/ha) | Plant response rating, Johnsongrass ([10]; Preemergence, 62 g ai/ha) | Plant response rating, Corn (corn (Zea mays); Preemergence, 62 g ai/ha)
15: Plant response rating, Surinam Grass ([2]; Preemergence, 61 g ai/ha) | Plant response rating, Corn (corn (Zea mays); Preemergence, 125 g ai/ha)
98: Plant response rating, Foxtail, Giant ([1]; Postemergence, 62 g ai/ha) | Plant response rating, Foxtail, Giant ([1]; Postemergence, 125 g ai/ha) | Plant response rating, Galium ([7]; Postemergence, 125 g ai/ha) | Plant response rating, Galium ([7]; Preemergence, 62 g ai/ha) | Plant response rating, Lambsquarters ([11]; Postemergence, 31 g ai/ha)
50: Plant response rating, Pigweed, Palmer ([3]; Preemergence, 61 g ai/ha) | Plant response rating, Windgrass ([4]; Preemergence, 61 g ai/ha) | Plant response rating, Nutsedge, Yellow ([8]; Postemergence, 16 g ai/ha)
100: Plant response rating, Foxtail, Giant ([1]; Preemergence, 125 g ai/ha) | Plant response rating, Surinam Grass ([2]; Preemergence, 125 g ai/ha) | Plant response rating, Pigweed, Palmer ([3]; Preemergence, 62 g ai/ha) | Plant response rating, Pigweed, Palmer ([3]; Preemergence, 125 g ai/ha) | Plant response rating, Windgrass ([4]; Preemergence, 125 g ai/ha) | Plant response rating, Poinsettia, Wild ([6]; Postemergence, 125 g ai/ha) | Plant response rating, Poinsettia, Wild ([6]; Preemergence, 125 g ai/ha) | Plant response rating, Galium ([7]; Preemergence, 125 g ai/ha) | Plant response rating, Lambsquarters ([11]; Postemergence, 62 g ai/ha) | Plant response rating, Lambsquarters ([11]; Postemergence, 125 g ai/ha) | Plant response rating, Lambsquarters ([11]; Preemergence, 125 g ai/ha)
95: Plant response rating, Foxtail, Giant ([1]; Postemergence, 16 g ai/ha) | Plant response rating, Foxtail, Giant ([1]; Postemergence, 31 g ai/ha) | Plant response rating, Foxtail, Giant ([1]; Preemergence, 62 g ai/ha) | Plant response rating, Surinam Grass ([2]; Postemergence, 62 g ai/ha) | Plant response rating, Surinam Grass ([2]; Postemergence, 125 g ai/ha) | Plant response rating, Pigweed, Palmer ([3]; Postemergence, 125 g ai/ha) | Plant response rating, Windgrass ([4]; Postemergence, 62 g ai/ha) | Plant response rating, Windgrass ([4]; Postemergence, 125 g ai/ha) | Plant response rating, Windgrass ([4]; Preemergence, 62 g ai/ha) | Plant response rating, Poinsettia, Wild ([6]; Postemergence, 31 g ai/ha) | Plant response rating, Galium ([7]; Postemergence, 62 g ai/ha) | Plant response rating, Nutsedge, Yellow ([8]; Postemergence, 125 g ai/ha) | Plant response rating, Nutsedge, Yellow ([8]; Preemergence, 125 g ai/ha) | Plant response rating, Ryegrass, Italian ([9]; Postemergence, 31 g ai/ha) | Plant response rating, Ryegrass, Italian ([9]; Postemergence, 62 g ai/ha) | Plant response rating, Ryegrass, Italian ([9]; Postemergence, 125 g ai/ha) | Plant response rating, Ryegrass, Italian ([9]; Preemergence, 62 g ai/ha) | Plant response rating, Ryegrass, Italian ([9]; Preemergence, 125 g ai/ha)
60: Plant response rating, Pigweed, Palmer ([3]; Postemergence, 62 g ai/ha) | Plant response rating, Crabgrass, Large ([5]; Preemergence, 62 g ai/ha)
85: Plant response rating, Kochia (kochia (Kochia scoparia); Preemergence, 62 g ai/ha) | Plant response rating, Galium ([7]; Preemergence, 31 g ai/ha) | Plant response rating, Ryegrass, Italian ([9]; Postemergence, 16 g ai/ha) | Plant response rating, Soybean (soybean (Glycine max); Postemergence, 125 g ai/ha) | Plant response rating, Johnsongrass ([10]; Postemergence, 125 g ai/ha)
55: Plant response rating, Kochia (kochia (Kochia scoparia); Postemergence, 31 g ai/ha) | Plant response rating, Surinam Grass ([2]; Preemergence, 31 g ai/ha) | Plant response rating, Pigweed, Palmer ([3]; Postemergence, 31 g ai/ha)
0: Plant response rating, Crabgrass, Large ([5]; Preemergence, 31 g ai/ha) | Plant response rating, Crabgrass, Large ([5]; Preemergence, 61 g ai/ha) | Plant response rating, Galium ([7]; Preemergence, 61 g ai/ha) | Plant response rating, Soybean (soybean (Glycine max); Preemergence, 31 g ai/ha) | Plant response rating, Soybean (soybean (Glycine max); Preemergence, 61 g ai/ha) | Plant response rating, Johnsongrass ([10]; Preemergence, 61 g ai/ha) | Plant response rating, Corn (corn (Zea mays); Preemergence, 31 g ai/ha) | Plant response rating, Corn (corn (Zea mays); Preemergence, 61 g ai/ha)
80: Plant response rating, Windgrass ([4]; Preemergence, 31 g ai/ha) | Plant response rating, Poinsettia, Wild ([6]; Postemergence, 62 g ai/ha) | Plant response rating, Soybean (soybean (Glycine max); Postemergence, 62 g ai/ha) | Plant response rating, Lambsquarters ([11]; Preemergence, 31 g ai/ha)
30: Plant response rating, Crabgrass, Large ([5]; Postemergence, 16 g ai/ha) | Plant response rating, Soybean (soybean (Glycine max); Preemergence, 125 g ai/ha) | Plant response rating, Corn (corn (Zea mays); Postemergence, 16 g ai/ha)
75: Plant response rating, Foxtail, Giant ([1]; Preemergence, 31 g ai/ha) | Plant response rating, Kochia (kochia (Kochia scoparia); Postemergence, 125 g ai/ha) | Plant response rating, Nutsedge, Yellow ([8]; Postemergence, 31 g ai/ha) | Plant response rating, Nutsedge, Yellow ([8]; Preemergence, 31 g ai/ha) | Plant response rating, Nutsedge, Yellow ([8]; Preemergence, 62 g ai/ha) | Plant response rating, Soybean (soybean (Glycine max); Postemergence, 31 g ai/ha) | Plant response rating, Johnsongrass ([10]; Postemergence, 62 g ai/ha) | Plant response rating, Corn (corn (Zea mays); Postemergence, 125 g ai/ha)
